Data taken from ChEMBL document CHEMBL4229568, “Discovery of natural flavonoids as activators of Nrf2-mediated defense system: Structure-activity relationship and inhibition of intracellular oxidative insults” (Bioorg Med Chem, 2018).
The source made the active and inactive calls. No cut-off for these calls is given here.

Each compound was assayed against T1, Nuclear factor erythroid 2-related factor 2 (Mus musculus) (UniProt Q60795) (assay: Activation of Nrf2 in mouse Heap1c1c7 cells assessed as induction of NAD(P)H:quinone reductase activity at 100 uM relative to control).
T1 sequence (whole entry): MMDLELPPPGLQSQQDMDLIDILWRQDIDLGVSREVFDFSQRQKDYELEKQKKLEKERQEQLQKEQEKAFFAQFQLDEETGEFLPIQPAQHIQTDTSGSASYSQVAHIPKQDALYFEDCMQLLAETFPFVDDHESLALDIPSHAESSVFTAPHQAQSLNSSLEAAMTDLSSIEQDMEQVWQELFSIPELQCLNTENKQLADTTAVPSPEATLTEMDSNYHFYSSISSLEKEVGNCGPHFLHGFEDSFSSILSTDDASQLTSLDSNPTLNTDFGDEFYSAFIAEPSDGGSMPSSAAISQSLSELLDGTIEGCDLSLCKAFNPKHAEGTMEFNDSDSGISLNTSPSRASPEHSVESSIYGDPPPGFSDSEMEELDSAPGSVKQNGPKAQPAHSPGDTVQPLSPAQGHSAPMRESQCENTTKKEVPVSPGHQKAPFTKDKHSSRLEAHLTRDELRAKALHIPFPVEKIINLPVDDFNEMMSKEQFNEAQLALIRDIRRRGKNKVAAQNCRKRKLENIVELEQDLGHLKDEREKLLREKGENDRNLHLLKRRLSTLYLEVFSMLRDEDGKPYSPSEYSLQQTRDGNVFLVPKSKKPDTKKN
Assay type: cell-based
With `COc1ccc([C@@H]2CC(=O)c3c(cc(OC)c(OC)c3OC)O2)cc1OC` the fold change (FC) was 1.81.
With `CC(C)=CCc1c(-c2ccc(O)cc2O)oc2cc(O)cc(O)c2c1=O` the fold change (FC) was 1.31.
`CC(C)=CCc1c(O)ccc2c1OC(c1ccc(O)cc1O)CC2=O` (stereo unspecified) was tested, and the fold change (FC) was 1.75.
`C/C(=C/Cc1c(O)ccc(C(=O)/C=C/c2ccc(O)cc2)c1O)CO` gave a fold change (FC) of 1.52.
In the case of `C/C(=C\Cc1c(O)ccc(C(=O)/C=C/c2ccc(O)cc2O)c1O)CO`, the fold change (FC) is reported as 1.61.
`CC(C)=CCc1c(O)cc2oc3c(c(=O)c2c1O)C(C=C(C)C)Oc1cc(O)ccc1-3` (stereo unspecified) was tested, and the fold change (FC) was 1.31.
Work on `CC(C)=CCc1c(O)ccc(C(=O)/C=C/c2ccc(O)cc2O)c1O` yielded a fold change (FC) of 1.34.
For `O=C1c2c(O)cc(O)cc2OC(c2ccc(O)cc2)C1O` (stereo unspecified), the fold change (FC) was 1.49.
`O=C1CC(c2ccc(O)c(O)c2)Oc2cc(O[C@@H]3O[C@H](CO)[C@@H](O)[C@H](O)[C@H]3O)cc(O)c21` (stereo partly specified) was tested, and the fold change (FC) was 1.66.
For `C/C(=C\Cc1c(O)ccc(C(=O)/C=C/c2ccc(O)cc2)c1O)CO`, the fold change (FC) was 1.43.

The compounds below were run against T1, Nuclear factor erythroid 2-related factor 2 (Mus musculus) (assay: Activation of Nrf2 in mouse Heap1c1c7 cells assessed as induction of NAD(P)H:quinone reductase activity at 25 uM relative to control).
Assay type: cell-based
`CC(C)/C=C/c1c(O)cc2oc(-c3ccc(O)cc3O)c(/C=C/C(C)C)c(=O)c2c1O` showed a fold change (FC) of 1.4.
With `C/C(=C/Cc1c(O)ccc(C(=O)/C=C/c2ccc(O)cc2O)c1O)CC(=O)/C=C/c1ccc(O)cc1` the fold change (FC) was 1.39.
`COc1cc(/C=C/C(=O)C/C(C)=C/Cc2c(O)ccc(C(=O)/C=C/c3ccc(O)cc3)c2O)ccc1O` was tested, and the fold change (FC) was 1.49.
For `C/C(=C\Cc1c(O)ccc(C(=O)/C=C/c2ccc(O)cc2)c1O)CC(=O)/C=C/c1ccc(O)cc1`, the fold change (FC) was 1.57.

Each compound was assayed against T1, Nuclear factor erythroid 2-related factor 2 (Mus musculus) (assay: Activation of Nrf2 in mouse Heap1c1c7 cells assessed as induction of NAD(P)H:quinone reductase activity at 50 uM relative to control).
Assay type: cell-based
Work on `O=c1cc(-c2ccc(O)c(-c3c(O)cc(O)c4c(=O)cc(-c5ccc(O)cc5)oc34)c2)oc2cc(O)cc(O)c12` yielded a fold change (FC) of 1.42.
With `CC(C)=CCc1c(O)cc2oc(-c3ccc(O)cc3O)c(/C=C/C(C)C)c(=O)c2c1O` the fold change (FC) was 1.86.
For `O=c1c(O)c(-c2ccc(O)cc2)oc2cc(O)cc(O)c12`, the fold change (FC) was 1.51.
In the case of `COc1cc([C@@H]2CC(=O)c3c(O)cc(O)cc3O2)ccc1O`, the fold change (FC) is reported as 1.51.
In the case of `CC(C)=CCc1c(O)ccc(C(=O)/C=C/c2ccc(O)cc2)c1O`, the fold change (FC) is reported as 1.69.
Work on `O=C1C[C@@H](c2ccc(O)c(O)c2)Oc2cc(O)cc(O)c21` yielded a fold change (FC) of 1.36.

The compounds below were run against T1, Nuclear factor erythroid 2-related factor 2 (Mus musculus) (assay: Activation of Nrf2 in mouse Heap1c1c7 cells assessed as induction of NAD(P)H:quinone reductase activity at 12.5 uM relative to control).
Assay type: cell-based
With `C/C(=C/Cc1c(O)ccc(C(=O)/C=C/c2ccc(O)cc2)c1O)CC(=O)/C=C/c1ccc(O)cc1` the fold change (FC) was 1.31.
For `COc1cc(/C=C/C(=O)C/C(C)=C\Cc2c(O)ccc(C(=O)/C=C/c3ccc(O)cc3)c2O)ccc1O`, the fold change (FC) was 1.46.
Work on `O=c1c(O)c(-c2ccc(O)c(O)c2)oc2cc(O)cc(O)c12` yielded a fold change (FC) of 1.36.

These compounds were tested against T2, Nuclear factor erythroid 2-related factor 2 (Homo sapiens) (UniProt Q16236) (assay: Activation of Nrf2 in human BEAS2B cells assessed as upregulation of Nrf2 protein expression at 20 uM after 12 hrs by immunoblot analysis).
T2 sequence (whole entry): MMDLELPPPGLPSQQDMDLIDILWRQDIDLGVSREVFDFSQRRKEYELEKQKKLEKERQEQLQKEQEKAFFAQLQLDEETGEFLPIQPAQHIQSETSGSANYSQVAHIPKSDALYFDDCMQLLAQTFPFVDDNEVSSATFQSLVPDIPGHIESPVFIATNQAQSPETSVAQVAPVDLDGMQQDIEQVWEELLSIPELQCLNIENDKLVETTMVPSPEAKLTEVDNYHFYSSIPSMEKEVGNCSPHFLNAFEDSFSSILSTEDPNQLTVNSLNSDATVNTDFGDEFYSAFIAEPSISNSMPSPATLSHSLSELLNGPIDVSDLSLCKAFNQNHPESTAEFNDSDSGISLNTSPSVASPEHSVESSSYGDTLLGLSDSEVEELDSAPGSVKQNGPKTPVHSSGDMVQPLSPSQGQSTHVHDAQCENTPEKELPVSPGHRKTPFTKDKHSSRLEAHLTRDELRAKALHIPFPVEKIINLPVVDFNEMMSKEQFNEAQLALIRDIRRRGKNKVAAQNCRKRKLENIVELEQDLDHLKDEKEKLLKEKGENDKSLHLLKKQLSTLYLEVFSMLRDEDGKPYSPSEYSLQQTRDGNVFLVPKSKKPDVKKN
Assay type: cell-based
In the case of `CC(C)(C)c1cc(O)ccc1O`, the Activity is reported as “Active”.

The compounds below were run against T2, Nuclear factor erythroid 2-related factor 2 (Homo sapiens) (assay: Activation of Nrf2 in human BEAS2B cells assessed as upregulation of NQO1 protein expression at 20 uM after 12 hrs by immunoblot analysis).
Assay type: cell-based
With `CC(C)(C)c1cc(O)ccc1O` the Activity was “Active”.

These compounds were tested against T2, Nuclear factor erythroid 2-related factor 2 (Homo sapiens) (assay: Activation of Nrf2 in human BEAS2B cells assessed as upregulation of gamma-GCS protein expression at 20 uM after 12 hrs by immunoblot analysis).
Assay type: cell-based
With `CC(C)(C)c1cc(O)ccc1O` the Activity was “Active”.
